In patent publication US4020150A (priority 1974, dated 1977):

What was measured:
Walker tumor [1] = details: rat, in vivo; cited from earlier work
Walker tumor [2] = details: cited from earlier work
burn wounds = details: burn therapy; cited from earlier work
[3] = cited from earlier work
tumors = details: by itself; cited from earlier work
P. berghei = details: high doses of PABA, protocol of Rollo
[4] = in water; cited from earlier work
[5] = system: Yoshidia sarcoma and other tumors; details: Connors et al.; cited from earlier work

## N[C@@H](Cc1ccc(N(CCCl)CCCl)cc1)C(=O)O [melphalan]
Walker tumor [1]
  ratio of concentration between the Walker tumor and the liver: 1:5
Walker tumor [2]
  effectiveness against the tumor: very effective against the tumor

## Nc1ccc(S(=O)(=O)Nc2ncccn2)cc1 [sodium sulfadiazine]
Burn wounds
  reaction with body fluids / consumption: would be used up rapidly and none would be left after a few days
[3]; water-soluble
  solubility: water-soluble

## Nc1ccc(S(=O)(=O)Nc2ncccn2)cc1 [sulfadiazine]
tumors
  anti-tumor activity: not an anti-tumor agent
[3]; free acid
  solubility of free acid: insoluble as a free acid
[3]; ionized
  solubility when ionized: very soluble when ionized
P. berghei
  inhibition of activity by PABA: significantly inhibited by PABA

## Nc1ccc(S(=O)(=O)Nc2cnccn2)cc1 [sulfapyrazine]
Walker tumor [1]
  selective deposition/concentration in Walker tumor: selectively deposited in the tumor regions
[4]
  pKa: 6.0

## Nc1ccc(S(=O)(=O)Nc2nccs2)cc1 [sulfathiazole]
[5]
  selective concentration in other transplanted animal tumors: do not concentrate selectively in these tumors
[4]
  pKa: 7.1
